# Experimental data published in patent US20240317816A1, “PEPTIDES FOR IMMUNOTHERAPY” (Genevive, Inc., priority 2021, published 2024).
# Test system: Chemokine receptors
# Experiment: LRC-TriCEPS LC-MS/MS identification of binding partners
# Settings: living cells, LRC-TriCEPS crosslinker
# Experimental: SG-3-00802 binding partners were identified using the mass spectrometry-based proteomics (LC MS/MS)-based LRC-TriCEPS™ technology from DualSystems. To enrich for binding partners the ligand was coupled with the LRC-TriCEPS™ crosslinker and incubated with living cells that expressed target receptors. The enriched proteins were purified and processed for analysis by LC-MS/MS. A parallel experiment using transferrin as control ligand enabled the relative quantification of the enriched proteins. Putative binding partners of SG-3-00802 enriched over transferrin ligand are depicted in a volcano plot (FIG. 3).
sequence,measurement,value
MKVRPSVKPMCEKCKIIRRKGRVMVICENPKHKQRQG [SG-3-00802],binding partners enriched over transferrin ligand,Chemokine receptors
